This test deals with human KDR protein in HEK-293 cells (Homo sapiens (Human), UniProt P35968). Nature of the test: KDR Cell Assay (phospho-KDR in HEK-293 cells expressing inducible KDR). Type of test: cell-based. Conditions: pKDR Cell HEK 10% FBS IC50, HEK-293 cells expressing inducible KDR, VEGF stimulated. The method in brief:
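HEK-293 cells with inducible human KDR were treated with compound for 1 h in DMEM (0.25% DMSO final), then lysed. Phospho-KDR was quantified by Meso Scale immunoassay, expressed as percent of control, and IC50 taken where a 4-parameter logistic fit crossed 50 POC.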

By IC50 is commonly meant the point on the concentration scale where inhibition reaches its midpoint. Higher therefore signals weaker potency in that assay.

Bounds are passed on as bounds.

Chain of human KDR protein in HEK-293 cells (P35968 20-1356): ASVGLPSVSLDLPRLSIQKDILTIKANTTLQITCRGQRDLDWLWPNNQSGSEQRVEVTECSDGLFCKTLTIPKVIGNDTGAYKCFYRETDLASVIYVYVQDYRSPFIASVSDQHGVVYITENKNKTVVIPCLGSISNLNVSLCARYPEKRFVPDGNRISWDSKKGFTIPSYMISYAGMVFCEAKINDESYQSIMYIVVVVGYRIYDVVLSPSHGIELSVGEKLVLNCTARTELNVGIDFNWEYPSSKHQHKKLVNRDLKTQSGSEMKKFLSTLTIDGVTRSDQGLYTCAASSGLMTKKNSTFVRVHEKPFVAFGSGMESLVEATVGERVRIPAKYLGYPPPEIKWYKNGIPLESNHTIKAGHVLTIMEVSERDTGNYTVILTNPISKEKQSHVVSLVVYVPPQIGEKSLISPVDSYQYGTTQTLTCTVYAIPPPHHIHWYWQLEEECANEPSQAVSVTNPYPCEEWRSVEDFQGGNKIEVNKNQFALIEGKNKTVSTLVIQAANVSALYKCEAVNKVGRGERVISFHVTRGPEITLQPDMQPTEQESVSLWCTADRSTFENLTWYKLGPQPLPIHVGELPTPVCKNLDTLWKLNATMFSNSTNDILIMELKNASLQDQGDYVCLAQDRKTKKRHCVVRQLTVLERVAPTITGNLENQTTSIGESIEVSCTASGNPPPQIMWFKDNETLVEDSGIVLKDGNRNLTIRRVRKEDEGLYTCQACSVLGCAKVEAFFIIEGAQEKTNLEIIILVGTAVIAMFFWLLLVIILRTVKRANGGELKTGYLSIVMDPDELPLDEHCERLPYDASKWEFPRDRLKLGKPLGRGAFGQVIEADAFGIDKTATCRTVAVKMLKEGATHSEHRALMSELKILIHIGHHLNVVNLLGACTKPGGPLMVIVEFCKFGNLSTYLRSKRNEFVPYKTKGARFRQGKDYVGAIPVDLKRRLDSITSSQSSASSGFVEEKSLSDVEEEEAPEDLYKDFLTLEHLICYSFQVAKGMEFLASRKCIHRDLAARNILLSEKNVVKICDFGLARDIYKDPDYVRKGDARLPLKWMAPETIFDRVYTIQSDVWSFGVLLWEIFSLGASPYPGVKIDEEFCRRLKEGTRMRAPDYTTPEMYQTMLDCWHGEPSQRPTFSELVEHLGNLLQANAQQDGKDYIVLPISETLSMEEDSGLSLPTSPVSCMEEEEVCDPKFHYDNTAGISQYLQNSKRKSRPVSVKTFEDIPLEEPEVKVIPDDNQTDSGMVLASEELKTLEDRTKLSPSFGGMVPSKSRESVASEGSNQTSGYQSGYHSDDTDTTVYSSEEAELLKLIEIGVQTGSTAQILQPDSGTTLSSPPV

In turn, `Cn1cc(-c2cc(-c3ccc(N4CCN([C@@H]5CCCC[C@H]5O)CC4)nc3)c3c(C#N)cnn3c2)cn1` [Example 155, 4-(6-(4-((1r,2r)-2-hydroxycyclohexyl)piperazin-1-yl)pyridin-3-yl)-6-(1-methyl-1H-pyrazol-4-yl)pyrazolo[1,5-a]pyridine-3-carbonitrile] gave an IC50 (10% FBS) of 979 nM.

Under “10% FBS”, `Cn1cc(-c2cc(-c3ccc(N4CCN(C(=O)NC5CC5)CC4)nc3)c3c(C#N)cnn3c2)cn1` [Example 131, 4-(5-(3-cyano-6-(1-methyl-1H-pyrazol-4-yl)pyrazolo[1,5-a]pyridin-4-yl)pyridin-2-yl)-N-cyclopropylpiperazine-1-carboxamide 2,2,2-trifluoroacetate] came in with an IC50 of 447 nM.

Compound `Cn1cc(-c2cc(-c3ccc(N4CCN(C(=O)N5CC[C@H](c6ccccc6)C5)CC4)nc3)c3c(C#N)cnn3c2)cn1` [Example 378, (R)-6-(1-methyl-1H-pyrazol-4-yl)-4-(6-(4-(3-phenylpyrrolidine-1-carbonyl)piperazin-1-yl)pyridin-3-yl)pyrazolo[1,5-a]pyridine-3-carbonitrile] gave a half-inhibitory concentration (IC50) of 467 nM.

`Cn1cc(-c2cc(-c3ccc(N4CC5(CCN(C(=O)OC(C)(C)C)CC5)C4)nc3)c3c(C#N)cnn3c2)cn1` [Example 223, tert-butyl 2-(5-(3-cyano-6-(1-methyl-1H-pyrazol-4-yl)pyrazolo[1,5-a]pyridin-4-yl)pyridin-2-yl)-2,7-diazaspiro[3.5]nonane-7-carboxylate] registered an IC50 (10% FBS) of 1550 nM.

`Cn1cc(-c2cc(-c3ccc(N4CCN(Cc5ccccc5F)CC4)nc3)c3c(C#N)cnn3c2)cn1` [Example 427, 4-(6-(4-(2-fluorobenzyl)piperazin-1-yl)pyridin-3-yl)-6-(1-methyl-1H-pyrazol-4-yl)pyrazolo[1,5-a]pyridine-3-carbonitrile] gave an IC50 of 937 nM.

`CNS(=O)(=O)N1CCN(c2ccc(-c3cc(-c4cnn(C)c4)cn4ncc(C#N)c34)cc2)CC1` [Example 299, 4-(4-(3-cyano-6-(1-methyl-1H-pyrazol-4-yl)pyrazolo[1,5-a]pyridin-4-yl)phenyl)-N-methylpiperazine-1-sulfonamide]: for the setting “10% FBS”, the IC50 stood at 151 nM.

`Cn1cc(-c2cc(-c3ccc(C4CCN(Cc5ccccc5)C4)nc3)c3c(C#N)cnn3c2)cn1` (stereo not drawn) [Example 582, 4-(6-(1-benzylpyrrolidin-3-yl)pyridine-3-yl)-6-(1-methyl-1H-pyrazol-4-yl)pyrazolo[1,5-a]pyridine-3-carbonitrile] registered a half-inhibitory concentration (IC50) of 561 nM.

In the case of `Cn1cc(-c2cc(-c3ccc(N4CCN(C(=O)[C@H](O)c5ccccc5Cl)CC4)nc3)c3ccnn3c2)cn1` [Example 320, (R)-2-(2-chlorophenyl)-2-hydroxy-1-(4-(5-(6-(1-methyl-1H-pyrazol-4-yl)pyrazolo[1,5-a]pyridin-4-yl)pyridin-2-yl)piperazin-1-yl)ethanone], the IC50 (10% FBS) was not below 5000 nM.

In the case of `Cn1cc(-c2cc(-c3ccc(N4CCN(C(=O)c5ccccn5)CC4)nc3)c3c(C#N)cnn3c2)cn1` [Example 72, 6-(1-methyl-1H-pyrazol-4-yl)-4-(6-(4-picolinoylpiperazin-1-yl)pyridin-3-yl)pyrazolo[1,5-a]pyridine-3-carbonitrile], inhibition (10% FBS) was half-maximal at 99.9 nM (IC50).

Compound `Cn1cc(-c2cc(-c3ccc(N4CC5CC(C4)N5Cc4ccccn4)nc3)c3c(C#N)cnn3c2)cn1` [Example 693, 6-(1-methyl-1H-pyrazol-4-yl)-4-(6-(6-(pyridin-2-ylmethyl)-3,6-diazabicyclo[3.1.1]heptan-3-yl)pyridin-3-yl)pyrazolo[1,5-a]pyridine-3-carbonitrile] returned an IC50 of 1020 nM.

As to `Cn1cc(-c2cc(-c3ccc(N4CCN(Cc5cc(F)cc(F)c5)CC4)nc3)c3c(C#N)cnn3c2)cn1` [Example 447, 4-(6-(4-(3,5-difluorobenzyl)piperazin-1-yl)pyridin-3-yl)-6-(1-methyl-1H-pyrazol-4-yl)pyrazolo[1,5-a]pyridine-3-carbonitrile], the IC50 came to 668 nM.

`Cn1cc(-c2cc(-c3ccc(N4CCN(Cc5ccn(C)n5)CC4)nc3)c3c(C#N)cnn3c2)cn1` [Example 439, 4-(6-(4-((1-methyl-1H-pyrazol-3-yl)methyl)piperazin-l-yl)pyridin-3-yl)-6-(1-methyl-1H-pyrazol-4-yl)pyrazolo[1,5-a]pyridine-3-carbonitrile] came in with an IC50 of 1240 nM.

In the case of `Cn1cc(-c2cc(-c3ccc(N4CCN(C(=O)N5CCC6(CC6)C5)CC4)nc3)c3c(C#N)cnn3c2)cn1` [Example 117, 4-(6-(4-(5-azaspiro[2.4]heptane-5-carbonyl)piperazin-1-yl)pyridin-3-yl)-6-(1-methyl-1H-pyrazol-4-yl)pyrazolo[1,5-a]pyridine-3-carbonitrile], the IC50 (10% FBS) is 354 nM.

Where the note is “10% FBS”, `Cn1cc(-c2cc(-c3ccc(N4[C@@H]5CC[C@H]4C[C@@H](O)C5)nc3)c3c(C#N)cnn3c2)cn1` [Example 199, 4-(6-((1R,3r,5S)-3-hydroxy-8-azabicyclo[3.2.1]octan-8-yl)pyridin-3-yl)-6-(1-methyl-1H-pyrazol-4-yl)pyrazolo[1,5-a]pyridine-3-carbonitrile] displayed an IC50 of 565 nM.

With `Cn1cc(-c2cc(-c3ccc(N4CCC(O)(C(F)(F)F)C4)nc3)c3c(C#N)cnn3c2)cn1` (stereo not drawn) [Example 531, 4-(6-(3-hydroxy-3-(trifluoromethyl)pyrrolidin-1-yl)pyridin-3-yl)-6-(1-methyl-1H-pyrazol-4-yl)pyrazolo[1,5-a]pyridine-3-carbonitrile 2,2,2-trifluoroacetate], the IC50 stood at 690 nM.

For the compound `Cn1cc(-c2cc(-c3ccc(N4CCN(C(=O)C5CC5)CC4)nc3)c3c(C#N)cnn3c2)cn1` [Example 68, 4-(6-(4-(cyclopropanecarbonyl)piperazin-1-yl)pyridin-3-yl)-6-(1-methyl-1H-pyrazol-4-yl)pyrazolo[1,5-a]pyridine-3-carbonitrile], for the setting “10% FBS”, the IC50 was determined as 789 nM.

Take `Cn1cc(-c2cc(-c3ccc(N4CC5CCC(C4)N5Cc4ccccc4)nc3)c3c(C#N)cnn3c2)cn1` [Example 484, 4-(6-(8-benzyl-3,8-diazabicyclo[3.2.1]octan-3-yl)pyridin-3-yl)-6-(1-methyl-1H-pyrazol-4-yl)pyrazolo[1,5-a]pyridine-3-carbonitrile]: it took 209 nM to reach half-maximal inhibition (IC50).

`Cn1cc(-c2cc(-c3ccc(N4CCN(C(=O)CC5CC5)CC4)nc3)c3c(C#N)cnn3c2)cn1` [Example 77, 4-(6-(4-(2-cyclopropylacetyl)piperazin-1-yl)pyridin-3-yl)-6-(1-methyl-1H-pyrazol-4-yl)pyrazolo[1,5-a]pyridine-3-carbonitrile] showed an IC50 (10% FBS) of 605 nM.

Regarding `Cn1cc(-c2cc(-c3cnc(N4CCN(Cc5ccccc5)CC4)nc3)c3c(C#N)cnn3c2)cn1` [Example 639, 4-(2-(4-benzylpiperazin-1-yl)pyrimidin-5-yl)-6-(1-methyl-1H-pyrazol-4-yl)pyrazolo[1,5-a]pyridine-3-carbonitrile], inhibition was half-maximal at 4680 nM (IC50).

`COc1ccc(C2(C(=O)N3CCN(c4ccc(-c5cc(-c6cnn(C)c6)cn6ncc(C#N)c56)cn4)CC3)CC2)cc1` [Example 344, 4-(6-(4-(1-(4-methoxyphenyl)cyclopropanecarbonyl)piperazin-1-yl)pyridin-3-yl)-6-(1-methyl-1H-pyrazol-4-yl)pyrazolo[1,5-a]pyridine-3-carbonitrile]: it took 385 nM to reach half-maximal inhibition (10% FBS) (IC50).

For the compound `COCC1(C(=O)N2CCN(c3ccc(-c4cc(-c5cnn(C)c5)cn5ncc(C#N)c45)cn3)CC2)CCC1` [Example 354, 4-(6-(4-(1-(methoxymethyl)cyclobutanecarbonyl)piperazin-1-yl)pyridin-3-yl)-6-(1-methyl-1H-pyrazol-4-yl)pyrazolo[1,5-a]pyridine-3-carbonitrile], under “10% FBS”, it took 1290 nM to reach half-maximal inhibition (IC50).

Consider `Cn1cc(-c2cc(-c3ccc(N4CCN(Cc5ccncc5F)CC4)nc3)c3c(C#N)cnn3c2)cn1` [Example 434, 4-(6-(4-((3-fluoropyridin-4-yl)methyl)piperazin-1-yl)pyridin-3-yl)-6-(1-methyl-1H-pyrazol-4-yl)pyrazolo[1,5-a]pyridine-3-carbonitrile], for which 1700 nM corresponded to half-maximal inhibition (IC50).

Turning to `CC(C)C(C(=O)N1CCN(c2ccc(-c3cc(-c4cnn(C)c4)cn4ncc(C#N)c34)cn2)CC1)c1ccccc1` (stereo not drawn) [Example 29, 6-(1-methyl-1H-pyrazol-4-yl)-4-(6-(4-(3-methyl-2-phenylbutanoyl)piperazin-1-yl)pyridin-3-yl)pyrazolo[1,5-a]pyridine-3-carbonitrile], inhibition (10% FBS) was half-maximal at 607 nM (IC50).

`Cn1cc(-c2cc(-c3ccc(N4CCN(C(=O)CC(C)(C)C)CC4)cc3)c3c(C#N)cnn3c2)cn1` [Example 294, 4-(4-(4-(3,3-dimethylbutanoyl)piperazin-1-yl)phenyl)-6-(1-methyl-1H-pyrazol-4-yl)pyrazolo[1,5-a]pyridine-3-carbonitrile]: half-maximal inhibition (10% FBS) (IC50) was put at 2100 nM.

In the case of `Cn1cc(-c2cc(-c3ccc(N4CCN(CC5CC5)CC4)nc3)c3c(C#N)cnn3c2)cn1` [Example 394, 4-(6-(4-(cyclopropylmethyl)piperazin-1-yl)pyridin-3-yl)-6-(1-methyl-1H-pyrazol-4-yl)pyrazolo[1,5-a]pyridine-3-carbonitrile], it took 453 nM to reach half-maximal inhibition (IC50).

Where the note is “10% FBS”, `CC(C)C(=O)N1CC2(CCN(c3ccc(-c4cc(-c5cnn(C)c5)cn5ncc(C#N)c45)cn3)CC2)C1` [Example 221, 4-(6-(2-isobutyryl-2,7-diazaspiro[3.5]nonan-7-yl)pyridin-3-yl)-6-(1-methyl-1H-pyrazol-4-yl)pyrazolo[1,5-a]pyridine-3-carbonitrile] returned an IC50 of 1660 nM.

Turning to `Cn1cc(-c2cc(-c3ccc(N4CCN(C(=O)Cc5cccnc5)CC4)nc3)c3c(C#N)cnn3c2)cn1` [Example 71, 6-(1-methyl-1H-pyrazol-4-yl)-4-(6-(4-(2-(pyridin-3-yl)acetyl)piperazin-1-yl)pyridin-3-yl)pyrazolo[1,5-a]pyridine-3-carbonitrile], the IC50 (10% FBS) worked out at 503 nM.
